Reference: US6028201A, “Inhibitors of farnesyl-protein transferase” (Merck & Co., Inc., priority 1998, dated 2000)
Where a name gives a salt, the structure may show the parent alone.

Target: T1, human FPTase (Homo sapiens, UniProt P49354+P49356)
T1 construct: made in house
Test: In vitro inhibition of human FPTase
Type: biochemical
Settings: 100 nM Ras-CVIM substrate, [3H]-FPP, 30 min; read-out: IC50 against human FPTase

| IC50 | SMILES |
| --- | --- |
| < 10 µM | CCCCCN(Cc1cncn1Cc1ccc(C#N)cc1)C(=O)N(C)c1cccc(Cl)c1 [Example 2, N-(3-chlorophenyl)-N-methyl-N'-[1-(4-cyanobenzyl)-5-imidazolylmethyl]-N'-(n-pentyl)urea hydrochloride] |
| < 10 µM | CCCCCN(Cc1cncn1Cc1ccc(C#N)cc1)C(=O)Nc1cccc(Cl)c1 [Example 1, N-(3-chlorophenyl)-N'-[1-(4-cyanobenzyl)-5-imidazolylmethyl]-N'-(n-pentyl)urea hydrochloride] |
